Literature values as cited in patent publication US12403113B2, “Composition containing creatine fatty ester for use in medicine” (COMMISSARIAT À L'ÉNERGIE ATOMIQUE ET AUX ÉNERGIES …, priority 2019, dated 2025).

Key:
CrT−/y mice = details: 0.02 mg/g body/weight/day for 5 days, intracerebroventricular; preliminary
CTD patients = details: pure creatine
[1] = system: Huntington's disease patients; details: 8 g/day for 16 weeks, 64 patients
DMD patients = details: 5 g of creatine/day for 8 weeks, oral

Row | Structure (SMILES) | performance in the object recognition task (CrT−/y mice) | improvement in CTD patients (CTD patients) | serum 8-hydroxy-2′-deoxyguanosine (marker of oxidative DNA damage) [1] | health and longevity (mice) | muscle Phosphocreatine/Inorganic Phosphate ratio (DMD patients) | muscle strength in short term (DMD patients) | tolerability (DMD patients; 18 patients vs placebo)
1 | CCCCCCCCCCCCOC(=O)CN(C)C(=N)N [DCE, dodecyl creatine ester] | significantly improves |  |  |  |  |  | 
2 | CN(CC(=O)O)C(=N)N [creatine, 2-1(methylguanidino) acetic acid] |  | does not lead to any improvement | marked decrease | improves health and longevity | significantly improved | preserved | well tolerated
